In the supplement of paper PMC10733146:

Experiments:
Experiment in all cases: viability relative to DMSO control (fraction); higher = less drug effect (more viable cells)
Settings in all cases: 48 h
[1] = tested on: primary AML patient cells (S085)
Method in brief: (§1)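 The cells were primary mononuclear tumour cells, either fresh or cryopreserved, isolated by Ficoll from blood or bone marrow or derived from processed lymph node. Each well of a 384-well plate received 4 × 10^4 cells onto compounds pre-plated at five concentrations, with one well per concentration. The medium was RPMI-1640 with penicillin/streptomycin, L-glutamine and human serum, and plates stood at 37 °C and 5% CO2 for 48 h. Viability is reported as CellTiter-Glo luminescence relative to the median of 16 inner DMSO wells.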

[2] = tested on: primary FL patient cells (S087)
Method in brief: as §1

[3] = tested on: primary MCL patient cells (S053)
Method in brief: as §1

[4] = tested on: primary AML patient cells (S019)
Method in brief: as §1

[5] = tested on: primary B-PLL patient cells (S016)
Method in brief: as §1

[6] = tested on: primary T-PLL patient cells (S008)
Method in brief: as §1

[7] = tested on: primary AML patient cells (S009)
Method in brief: as §1

[8] = tested on: primary FL patient cells (S022)
Method in brief: as §1

[9] = tested on: primary AML patient cells (S091)
Method in brief: as §1

[10] = tested on: primary AML patient cells (S011)
Method in brief: as §1

[11] = tested on: primary AML patient cells (S025)
Method in brief: as §1

[12] = tested on: primary AML patient cells (S012)
Method in brief: as §1

[13] = tested on: primary MCL patient cells (S041)
Method in brief: as §1

[14] = tested on: primary AML patient cells (S017)
Method in brief: as §1

[15] = tested on: primary BL patient cells (S005)
Method in brief: as §1

[16] = tested on: primary AML patient cells (S021)
Method in brief: as §1

[17] = tested on: primary AML patient cells (S037)
Method in brief: as §1

[18] = tested on: primary AML patient cells (S081)
Method in brief: as §1

[19] = tested on: primary AML patient cells (S002)
Method in brief: as §1

[20] = tested on: primary MCL patient cells (S068)
Method in brief: as §1

SMILES: CC(=O)Nc1cccc(-n2c(=O)n(C3CC3)c(=O)c3c(Nc4ccc(I)cc4F)n(C)c(=O)c(C)c32)c1 [Trametinib]
- viability ([1]; 0.0008 µM): 0.667
- viability ([1]; 0.004 µM): 0.618
- viability ([1]; 0.02 µM): 0.484
- viability ([1]; 0.1 µM): 0.456
- viability ([1]; 0.5 µM): 0.415
- viability ([2]; 0.0008 µM): 0.951
- viability ([2]; 0.004 µM): 0.9
- viability ([2]; 0.02 µM): 0.92
- viability ([2]; 0.1 µM): 0.903
- viability ([2]; 0.5 µM): 0.941
- viability ([3]; 0.0008 µM): 0.885
- viability ([3]; 0.004 µM): 0.899
- viability ([3]; 0.02 µM): 0.818
- viability ([3]; 0.1 µM): 0.806
- viability ([3]; 0.5 µM): 0.733
- viability ([4]; 0.0008 µM): 0.948
- viability ([4]; 0.004 µM): 0.944
- viability ([4]; 0.02 µM): 0.878
- viability ([4]; 0.1 µM): 0.919
- viability ([4]; 0.5 µM): 0.912
- viability ([5]; 0.0008 µM): 0.939
- viability ([5]; 0.004 µM): 1.05
- viability ([5]; 0.02 µM): 0.986
- viability ([5]; 0.1 µM): 0.933
- viability ([5]; 0.5 µM): 0.885
- viability ([6]; 0.0008 µM): 0.965
- viability ([6]; 0.004 µM): 1.05
- viability ([6]; 0.02 µM): 0.955
- viability ([6]; 0.1 µM): 1.07
- viability ([6]; 0.5 µM): 0.905
- viability ([7]; 0.0008 µM): 1.09
- viability ([7]; 0.004 µM): 1.17
- viability ([7]; 0.02 µM): 1.24
- viability ([7]; 0.1 µM): 1.24
- viability ([7]; 0.5 µM): 1.04
- viability ([8]; 0.0008 µM): 0.845
- viability ([8]; 0.004 µM): 0.986
- viability ([8]; 0.02 µM): 0.851
- viability ([8]; 0.1 µM): 1.18
- viability ([8]; 0.5 µM): 0.824
- viability ([9]; 0.0008 µM): 0.438
- viability ([9]; 0.004 µM): 0.308
- viability ([9]; 0.02 µM): 0.288
- viability ([9]; 0.1 µM): 0.299
- viability ([9]; 0.5 µM): 0.272
- viability ([10]; 0.0008 µM): 0.855
- viability ([10]; 0.004 µM): 0.925
- viability ([10]; 0.02 µM): 0.953
- viability ([10]; 0.1 µM): 0.931
- viability ([10]; 0.5 µM): 0.879
- viability ([11]; 0.0008 µM): 0.74
- viability ([11]; 0.004 µM): 0.618
- viability ([11]; 0.02 µM): 0.644
- viability ([11]; 0.1 µM): 0.561
- viability ([11]; 0.5 µM): 0.554
- viability ([12]; 0.0008 µM): 0.799
- viability ([12]; 0.004 µM): 0.808
- viability ([12]; 0.02 µM): 0.45
- viability ([12]; 0.1 µM): 0.406
- viability ([12]; 0.5 µM): 0.306
- viability ([13]; 0.0008 µM): 0.989
- viability ([13]; 0.004 µM): 1.04
- viability ([13]; 0.02 µM): 1.03
- viability ([13]; 0.1 µM): 1.01
- viability ([13]; 0.5 µM): 1.02
- viability ([14]; 0.0008 µM): 1.02
- viability ([14]; 0.004 µM): 1.1
- viability ([14]; 0.02 µM): 0.888
- viability ([14]; 0.1 µM): 0.852
- viability ([14]; 0.5 µM): 0.719
- viability ([15]; 0.0008 µM): 0.943
- viability ([15]; 0.004 µM): 0.964
- viability ([15]; 0.02 µM): 1.01
- viability ([15]; 0.1 µM): 0.984
- viability ([15]; 0.5 µM): 0.912
- viability ([16]; 0.0008 µM): 0.864
- viability ([16]; 0.004 µM): 0.697
- viability ([16]; 0.02 µM): 0.672
- viability ([16]; 0.1 µM): 0.598
- viability ([16]; 0.5 µM): 0.605
- viability ([17]; 0.0008 µM): 0.957
- viability ([17]; 0.004 µM): 0.969
- viability ([17]; 0.02 µM): 0.921
- viability ([17]; 0.1 µM): 0.899
- viability ([17]; 0.5 µM): 0.915
- viability ([18]; 0.0008 µM): 0.999
- viability ([18]; 0.004 µM): 0.935
- viability ([18]; 0.02 µM): 0.742
- viability ([18]; 0.1 µM): 0.651
- viability ([18]; 0.5 µM): 0.567
- viability ([19]; 0.0008 µM): 0.398
- viability ([19]; 0.004 µM): 0.432
- viability ([19]; 0.02 µM): 0.364
- viability ([19]; 0.1 µM): 0.437
- viability ([19]; 0.5 µM): 0.402
- viability ([20]; 0.0008 µM): 0.921
- viability ([20]; 0.004 µM): 0.8
- viability ([20]; 0.02 µM): 0.791
- viability ([20]; 0.1 µM): 0.727
- viability ([20]; 0.5 µM): 0.7
